Results from EP4603105A1, “PHARMACEUTICAL COMPOSITION CONTAINING CYCLIC COMPOUND HAVING SELECTIVE KRAS INHIBITORY EFFECT AGAINST HRAS AND NRAS” (CHUGAI SEIYAKU KABUSHIKI KAISHA, priority 2022, dated 2024).
*1 amine or outer side, *2 acyl side, *3 side chain or, on linkers, in order; H or OH if unused. Where a SMILES comes first, the peptide text is derived from it. Bridges are numbered along the chain shown (N, C = ends). [ ]: non-standard residue; d: D form. hPhe(3,5-F2-4-CF3) = N[C@@H](CCc1cc(F)c(C(F)(F)F)c(F)c1)C(=O)O; NPrPhe(4-CF3) = CCCN[C@@H](Cc1ccc(C(F)(F)F)cc1)C(=O)O; NMeGly(cPent) = CN[C@H](C(=O)O)C1CCCC1; X7 = C[C@@](N[*:1])(C(=O)[*:2])C1CC1; NMeD = CN[C@@H](CC(=O)O)C(=O)O; NMeL = CN[C@@H](CC(C)C)C(=O)O; Sar = CNCC(=O)O

Key:
[1] = target: GDP-bound NRAS wild-type protein (Homo sapiens, UniProt P01111); assay: Binding to NRAS by surface plasmon resonance (SPR), KD and KD ratio to KRAS
Protocol: (§1) Surface plasmon resonance was used to analyze the binding affinity of compounds for KRAS, NRAS, and HRAS. The apparatus used was Biacore 8K, 8K+, or T200 (GE Healthcare), and the running buffer used was HBS (10 mM HEPES-NaOH, 150 mM NaCl, pH 7.4) containing 1 mM DTT, 10 mM MgCl2, 0.01% Tween 20, 10 µM GDP, and 4% DMSO.
(§2) Biotinylated Avi-tag fusion KRAS, NRAS, and HRAS proteins were expressed in E. coli BL21 (DE3) strains, and after cells were homogenized, they were purified using Streptavidin Mutein Matrix and Superdex 75. After purification, GDP-loaded KRAS, NRAS, and HRAS proteins were immobilized on the surface of Sensor Chip CAP (Cytiva) coated with Biotin CAPture Reagent in an immobilization amount of about 100 to 300 RU. Binding of each compound was evaluated by the Single Cycle Kinetics method, and a running buffer or a compound solution was added to the RAS protein non-immobilized surface and the immobilized surface to obtain a binding response. The flow rate was set to 100 µL/min, and in the compound-adding cycle, compound solutions having different concentrations were intermittently added for 75 seconds each, starting from a low concentration. […] In the blank cycle, a running buffer was intermittently added and not the compound solution. The Biotin CAPture Reagent and RAS proteins were immobilized for each cycle, and at the end of each cycle, the sensor chip was regenerated by the regeneration solution appended to the Biotin CAPture Kit (Cytiva). Measurement was carried out at 30°C.
(§3) The resulting sensorgram was subjected to curve fitting based on a 1:1 binding model on Biacore Insight Evaluation Software or T200 Evaluation Software, and thereby the dissociation constant KD of each compound with respect to KRAS, NRAS, and HRAS was determined. […] Blank indicates a compound from which the KD value with respect to NRAS or HRAS was not obtained.

[2] = target: HRAS wild-type protein (Homo sapiens, UniProt P01112); assay: Binding to HRAS by surface plasmon resonance (SPR), KD and KD ratio to KRAS
Protocol: as §1, §2, §3

[3] = system: human lung cancer strain NCI-H441; assay type: cell-based
Protocol: A test compound was dispensed into a U-bottom 384-well plate as 40 nL serially diluted dimethyl sulfoxide solutions using a liquid handler Echo (LABCYTE). […] This cell suspension was dispensed in an amount of 40 µL per well into a plate containing the test compound, and cultured at 37°C in a 5% carbon dioxide gas incubator. Four days later, 20 µL of CellTiter-Glo (registered trademark) (Promega) was added to each well and […] was measured. […]

[4] = ratio of KD for GDP-bound NRAS wild-type protein to KD for KRAS
[5] = ratio of KD for HRAS wild-type protein to KD for KRAS
[6] = ratio of the KD value with respect to GDP-bound NRAS wild-type protein to the KD value with respect to KRAS
[7] = ratio of the KD value with respect to HRAS wild-type protein to the KD value with respect to KRAS
[8] = ratio of KD value for GDP-bound NRAS wild-type protein to KD value for KRAS (SPR)
[9] = ratio of KD value for HRAS wild-type protein to KD value for KRAS (SPR)

HRAS wild-type protein, sequence (P01112 whole entry): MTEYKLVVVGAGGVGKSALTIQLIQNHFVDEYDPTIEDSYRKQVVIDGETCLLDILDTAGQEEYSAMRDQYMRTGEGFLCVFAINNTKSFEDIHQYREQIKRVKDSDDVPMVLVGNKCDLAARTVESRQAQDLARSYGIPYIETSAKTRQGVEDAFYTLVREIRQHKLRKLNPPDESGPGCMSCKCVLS
GDP-bound NRAS wild-type protein, sequence (P01111 whole entry): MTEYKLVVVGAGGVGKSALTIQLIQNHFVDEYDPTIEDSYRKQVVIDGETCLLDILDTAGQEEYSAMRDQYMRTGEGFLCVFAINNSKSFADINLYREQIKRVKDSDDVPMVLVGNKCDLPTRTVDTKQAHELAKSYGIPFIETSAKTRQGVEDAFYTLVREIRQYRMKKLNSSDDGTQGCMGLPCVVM

Row | Compound | IC50 [3] [nM] | NRAS /KRAS [1, 4] | HRAS /KRAS [2, 5] | NRAS /KRAS [1, 6] | HRAS /KRAS [2, 7] | NRAS /KRAS [1, 8] | HRAS /KRAS [2, 9]
1 | CCO[C@@H]1C[C@H]2C(=O)NC3(CCC3)C(=O)N(C)[C@@H](C3CCCC3)C(=O)N(C)[C@H](C(=O)N3CCOCC3)CC(=O)N(C)[C@@H](CCOC)C(=O)N[C@@H]([C@@H](C)CC)C(=O)N(C)CC(=O)N(C)[C@H]3CCCCN(C3=O)[C@@H](Cc3ccc(C(F)(F)F)cc3)C(=O)N(C)CC(=O)N[C@@H](CCc3cc(F)c(C(F)(F)F)c(F)c3)C(=O)N2C1 [PP0720] | 13.7 | – | – | C (A compound having a KD ratio of 0.1 or more and less than 3 is denoted as C) | B (a compound having 3 or more and less than 10 is denoted as B) | – | –
2 | CCCN(C)C(=O)[C@@H]1CC(=O)N(C)[C@@H](CC(F)(F)F)C(=O)N[C@@H]([C@@H](C)CC)C(=O)N(C)CC(=O)N(C)[C@H]2C/C=C\CCN(C2=O)[C@@H](Cc2ccc(C(F)(F)F)cc2)C(=O)N(C)CC(=O)N[C@@H](CCc2cc(F)c(C(F)(F)F)c(F)c2)C(=O)N2C[C@H](OCC)C[C@H]2C(=O)NC2(CC(F)(F)C2)C(=O)N(C)[C@@H](C2CCCC2)C(=O)N1C [PP1734] | 4.4 | – | – | – | – | A (a compound having 10 or more and less than 20 is denoted as A) | A (a compound having 10 or more and less than 20 is denoted as A)
3 | CCO[C@@H]1C[C@H]2C(=O)NC3(CCC3)C(=O)N(C)[C@@H](C(CC)CC)C(=O)N(C)[C@H](C(=O)N(C)C)CC(=O)N(C)[C@@H](CC3CCCC3)C(=O)N[C@@H]([C@@H](C)CC)C(=O)N(C)CC(=O)N(C)[C@H]3C/C=C\CCN(C3=O)[C@@H](Cc3ccc(F)cc3)C(=O)N(C)CC(=O)N[C@@H](CCc3cc(F)c(C(F)(F)F)c(F)c3)C(=O)N2C1 [PP1517] | 33.6 | – | – | – | – | A (a compound having 10 or more and less than 20 is denoted as A) | A (a compound having 10 or more and less than 20 is denoted as A)
4 | CCCN1C(=O)CN(C)C(=O)CN(C)C(=O)[C@H]([C@@H](C)CC)NC(=O)[C@H](CC(C)C)N(C)C(=O)C[C@@H](C(=O)N(C)C)N(C)C(=O)[C@H](C2CCCC2)N(C)C(=O)[C@](C)(C2CC2)NC(=O)[C@@H]2CCCN2C(=O)[C@H](CCc2cc(F)c(C(F)(F)F)c(F)c2)NC(=O)CN(C)C(=O)[C@@H]1Cc1ccc(C(F)(F)F)cc1 [PP0734] ([NMeL]I[Sar][Sar][NPrPhe(4-CF3)][Sar][hPhe(3,5-F2-4-CF3)]P[X7][NMeGly(cPent)][NMeD]-NMe2; lactam N-11) | 28.8 | – | – | B (a compound having 3 or more and less than 10 is denoted as B) | C (A compound having a KD ratio of 0.1 or more and less than 3 is denoted as C) | – | –
5 | CCO[C@@H]1C[C@H]2C(=O)NC3(CCC3)C(=O)N(C)[C@@H](C3CCCC3)C(=O)N(C)[C@H](C(=O)N3CCOCC3)CC(=O)N(C)[C@@H](Cc3ccc(F)c(F)c3)C(=O)N[C@@H]([C@@H](C)CC)C(=O)N(C)CC(=O)N(C)[C@H]3CCCCCN(C3=O)[C@@H](Cc3ccc(C(F)(F)F)cc3)C(=O)N(C)CC(=O)N[C@@H](CCc3cc(F)c(C(F)(F)F)c(F)c3)C(=O)N2C1 [PP0928] | 182 | A (a compound having 10 or more and less than 20 is denoted as A) | B (a compound having 3 or more and less than 10 is denoted as B) | – | – | – | –
6 | CCO[C@@H]1C[C@H]2C(=O)NC3(CCC3)C(=O)N(C)[C@@H](C3CCCC3)C(=O)N(C)[C@H](C(=O)N(C)C)CC(=O)N(C)[C@@H](CC3CCC3)C(=O)N[C@@H]([C@@H](C)CC)C(=O)N(C)CC(=O)N(C)[C@H]3CCCCN(C3=O)[C@@H](Cc3ccc(C(F)(F)F)cc3)C(=O)N(C)CC(=O)N[C@@H](CCc3cc(F)c(C(F)(F)F)c(F)c3)C(=O)N2C1 [PP0698] | 4.1 | – | – | C (A compound having a KD ratio of 0.1 or more and less than 3 is denoted as C) | C (A compound having a KD ratio of 0.1 or more and less than 3 is denoted as C) | – | –

Continued, in another order:

Row | IC50 [3] [nM] | Compound | NRAS /KRAS [1, 4] | HRAS /KRAS [2, 5] | NRAS /KRAS [1, 6] | HRAS /KRAS [2, 7] | NRAS /KRAS [1, 8] | HRAS /KRAS [2, 9]
7 | 1.1 | CCO[C@@H]1C[C@H]2C(=O)NC3(CC(C)(C)C3)C(=O)N(C)[C@@H](C3CCCC3)C(=O)N(C)[C@H](C(=O)N(C)C)CC(=O)N(C)[C@H]3CCCCCc4ccc(cc4)C[C@@H](C(=O)N(C)CC(=O)N[C@@H](CCc4ccc(C(F)(F)F)c(OC)c4)C(=O)N2C1)N1CC/C=C\C[C@@H](C1=O)N(C)C(=O)CN(C1CC1)C(=O)[C@H]([C@@H](C)CC)NC3=O [PP3075] | A (a compound having 10 or more and less than 20 is denoted as A) | A (a compound having 10 or more and less than 20 is denoted as A) | – | – | – | –
8 | 75.5 | CCO[C@@H]1C[C@H]2C(=O)NC3(CC(C)(C)C3)C(=O)N(C)[C@@H](C(CC)CC)C(=O)N(C)[C@H](C(=O)N(C)C)CC(=O)N(C)[C@@H](CC3CCC3)C(=O)N[C@@H]([C@@H](C)CC)C(=O)N(C)CC(=O)N(C)[C@H]3C/C=C\CCN(C3=O)[C@@H](Cc3ccc(C)cc3)C(=O)N(C)CC(=O)N[C@@H](CCc3ccc(Cl)c(Cl)c3)C(=O)N2C1 [PP2120] | – | – | AA (a compound having 20 or more is denoted as AA) | A (a compound having 10 or more and less than 20 is denoted as A) | – | –
9 | 10.7 | CC[C@H](C)[C@@H]1NC(=O)[C@H](C(C)C)N(C)C(=O)C[C@@H](C(=O)N(C)C)N(C)C(=O)[C@H](C2CCCC2)N(C)C(=O)C2(CC(C)(C)C2)NC(=O)[C@@H]2C[C@H](C)CN2C(=O)[C@H](CCc2ccc(C(F)(F)F)c(OC)c2)NC(=O)CN(C)C(=O)[C@H](Cc2ccc(C(F)(F)F)cc2)N2CC/C=C\C[C@@H](C2=O)N(C)C(=O)CN(C)C1=O [PP2005] | – | – | A (a compound having 10 or more and less than 20 is denoted as A) | A (a compound having 10 or more and less than 20 is denoted as A) | – | –
10 | 17.7 | CCO[C@@H]1C[C@H]2C(=O)NC3(CC(C)(C)C3)C(=O)N(C)[C@@H](C(CC)CC)C(=O)N(C)[C@H](C(=O)N(C)C)CC(=O)N(C)[C@@H](CC)C(=O)N[C@@H]([C@@H](C)CC)C(=O)N(C)CC(=O)N(C)[C@H]3C/C=C\CCN(C3=O)[C@@H](Cc3ccc(C)cc3)C(=O)N(C)CC(=O)N[C@@H](CCc3ccc(C(F)(F)F)c(Cl)c3)C(=O)N2C1 [PP2154] | – | – | A (a compound having 10 or more and less than 20 is denoted as A) | A (a compound having 10 or more and less than 20 is denoted as A) | – | –
11 | 6 | CCC(CC)[C@H]1C(=O)N(C)[C@H](C(=O)N(C)C)CC(=O)N(C)[C@H]2CCC/C=C/c3ccc(cc3)C[C@@H](C(=O)N(C)CC(=O)N[C@@H](CCc3cc(F)c(C(F)(F)F)c(F)c3)C(=O)N3C[C@H](OC(C)C)C[C@H]3C(=O)NC3(CC(C)(C)C3)C(=O)N1C)N1CC/C=C\C[C@@H](C1=O)N(C)C(=O)CN(C)C(=O)[C@H]([C@@H](C)CC)NC2=O [PP2594] | A (a compound having 10 or more and less than 20 is denoted as A) | A (a compound having 10 or more and less than 20 is denoted as A) | – | – | – | –
12 | 27.8 | CCO[C@@H]1C[C@H]2C(=O)NC3(CC(C)(C)C3)C(=O)N(C)[C@@H](C(CC)CC)C(=O)N(C)[C@H](C(=O)N(C)C)CC(=O)N(C)[C@@H](CC3CCC3)C(=O)N[C@@H]([C@@H](C)CC)C(=O)N(C)CC(=O)N(C)[C@H]3C/C=C\CCN(C3=O)[C@@H](Cc3ccc(C(F)(F)F)cc3)C(=O)N(C)CC(=O)N[C@@H](CCc3ccc(Cl)c(Cl)c3)C(=O)N2C1 [PP2180] | – | – | AA (a compound having 20 or more is denoted as AA) | A (a compound having 10 or more and less than 20 is denoted as A) | – | –
